Laboratory results published in patent US20240165123A1, “USE OF A COMPOUND CONTAINING A TRICYCLIC HETEROARYL GROUP” (CSPC Zhongqi Pharmaceutical Technology (Shijiazhuang) Co., …, priority 2021, published 2024).
pIC50: −log10 of the molar value.

Columns and labels:
[1] = Genotoxicity
[2] = target: JAK2 (Homo sapiens, UniProt O60674); experiment: Kinase activity inhibition test (Mobility Shift Assay); type: biochemical; conditions: 6.5 μM ATP
Protocol: (§1) • 1. kinases: SYK, JAK1, JAK2, JAK3 and TYK2 • 2. test method
(§2) Protein kinase activity was determined by Mobility Shift Assay. Compound (I) was dissolved in DMSO and prepared into concentration gradients in 100% DMSO. By the dilution with the kinase buffer, 5 μL of Compound (I) (10% DMSO) was added to a 384-well plate at 5 folds of the final reaction concentration. 10 μL of 2.5-fold enzyme solution was added and the incubation was performed at room temperature for 10 min, followed by the addition of 10 μL of 2.5-fold substrate solution. The incubation was performed at 28° C. for 60 min and […] of stop solution was added to the 384-well reaction plate to terminate the reaction (100 mM HEPES, pH 7.5, 0.015% Brij-35, 0.2% Coating Reagent #3, 50 mM EDTA). The conversion data was copied from the Caliper EZ Reader, and converted into the inhibition data, % inhibition=(max-conversion)/(max-min)×100%, wherein, “min” is the conversion for the control sample well where the reaction was performed without adding the enzyme; and “max” is the conversion for the control well where DMSO was added. The curve was drawn with the compound concentration and the inhibition rate as the horizontal and vertical is coordinates, and the IC50 value was calculated by fitting with XLFit excel add-in version 5.4.0.8. Fitting equation:
(§3) Y=Bottom+(Top-Bottom)/(1+(IC50/X)^HillSlope).

[3] = target: JAK1 (Homo sapiens, UniProt P23458); experiment: as above; type: biochemical; conditions: 66 μM ATP
Protocol: as §1, §2, §3

[4] = target: TYK2 (Homo sapiens, UniProt P29597); experiment: as above; type: biochemical; conditions: 16 μM ATP
Protocol: as §1, §2, §3

[5] = target: T1, JAK3 (Homo sapiens, UniProt P52333); experiment: as above; type: biochemical; conditions: 4.3 μM ATP
T1 sequence (P52333 1-1124): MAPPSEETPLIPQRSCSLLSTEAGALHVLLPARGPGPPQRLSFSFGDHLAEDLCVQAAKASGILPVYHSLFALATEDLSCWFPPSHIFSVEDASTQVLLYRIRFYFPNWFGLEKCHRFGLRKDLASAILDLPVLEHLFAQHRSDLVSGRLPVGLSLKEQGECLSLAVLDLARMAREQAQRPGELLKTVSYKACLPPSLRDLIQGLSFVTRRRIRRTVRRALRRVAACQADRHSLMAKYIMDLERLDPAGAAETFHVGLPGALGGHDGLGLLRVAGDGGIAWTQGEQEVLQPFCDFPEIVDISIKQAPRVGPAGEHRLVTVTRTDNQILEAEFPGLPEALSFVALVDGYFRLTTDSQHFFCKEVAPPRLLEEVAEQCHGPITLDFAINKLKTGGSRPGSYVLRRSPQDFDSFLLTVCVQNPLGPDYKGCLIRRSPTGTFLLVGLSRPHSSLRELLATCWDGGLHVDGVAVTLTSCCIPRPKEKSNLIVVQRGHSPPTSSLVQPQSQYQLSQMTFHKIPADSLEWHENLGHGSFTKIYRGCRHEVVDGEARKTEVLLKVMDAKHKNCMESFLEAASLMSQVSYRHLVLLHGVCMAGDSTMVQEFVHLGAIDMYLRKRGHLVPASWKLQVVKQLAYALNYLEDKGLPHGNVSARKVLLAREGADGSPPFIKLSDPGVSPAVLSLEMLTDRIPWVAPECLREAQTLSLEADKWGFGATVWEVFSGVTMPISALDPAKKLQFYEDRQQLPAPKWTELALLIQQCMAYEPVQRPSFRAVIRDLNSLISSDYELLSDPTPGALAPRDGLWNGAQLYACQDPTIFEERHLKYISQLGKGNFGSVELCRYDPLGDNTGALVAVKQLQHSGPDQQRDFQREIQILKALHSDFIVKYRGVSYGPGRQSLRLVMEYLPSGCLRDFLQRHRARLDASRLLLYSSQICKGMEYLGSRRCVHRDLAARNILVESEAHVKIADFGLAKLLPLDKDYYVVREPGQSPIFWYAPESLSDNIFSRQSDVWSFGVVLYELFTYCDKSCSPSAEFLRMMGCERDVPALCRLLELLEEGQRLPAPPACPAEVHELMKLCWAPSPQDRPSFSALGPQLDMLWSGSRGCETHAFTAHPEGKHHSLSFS
Protocol: as §1, §2, §3

[6] = target: SYK (Homo sapiens, UniProt P43405); experiment: as above; type: biochemical; conditions: 2 μM ATP
Protocol: as §1, §2, §3

JAK1, sequence (P23458 whole entry, species assumed): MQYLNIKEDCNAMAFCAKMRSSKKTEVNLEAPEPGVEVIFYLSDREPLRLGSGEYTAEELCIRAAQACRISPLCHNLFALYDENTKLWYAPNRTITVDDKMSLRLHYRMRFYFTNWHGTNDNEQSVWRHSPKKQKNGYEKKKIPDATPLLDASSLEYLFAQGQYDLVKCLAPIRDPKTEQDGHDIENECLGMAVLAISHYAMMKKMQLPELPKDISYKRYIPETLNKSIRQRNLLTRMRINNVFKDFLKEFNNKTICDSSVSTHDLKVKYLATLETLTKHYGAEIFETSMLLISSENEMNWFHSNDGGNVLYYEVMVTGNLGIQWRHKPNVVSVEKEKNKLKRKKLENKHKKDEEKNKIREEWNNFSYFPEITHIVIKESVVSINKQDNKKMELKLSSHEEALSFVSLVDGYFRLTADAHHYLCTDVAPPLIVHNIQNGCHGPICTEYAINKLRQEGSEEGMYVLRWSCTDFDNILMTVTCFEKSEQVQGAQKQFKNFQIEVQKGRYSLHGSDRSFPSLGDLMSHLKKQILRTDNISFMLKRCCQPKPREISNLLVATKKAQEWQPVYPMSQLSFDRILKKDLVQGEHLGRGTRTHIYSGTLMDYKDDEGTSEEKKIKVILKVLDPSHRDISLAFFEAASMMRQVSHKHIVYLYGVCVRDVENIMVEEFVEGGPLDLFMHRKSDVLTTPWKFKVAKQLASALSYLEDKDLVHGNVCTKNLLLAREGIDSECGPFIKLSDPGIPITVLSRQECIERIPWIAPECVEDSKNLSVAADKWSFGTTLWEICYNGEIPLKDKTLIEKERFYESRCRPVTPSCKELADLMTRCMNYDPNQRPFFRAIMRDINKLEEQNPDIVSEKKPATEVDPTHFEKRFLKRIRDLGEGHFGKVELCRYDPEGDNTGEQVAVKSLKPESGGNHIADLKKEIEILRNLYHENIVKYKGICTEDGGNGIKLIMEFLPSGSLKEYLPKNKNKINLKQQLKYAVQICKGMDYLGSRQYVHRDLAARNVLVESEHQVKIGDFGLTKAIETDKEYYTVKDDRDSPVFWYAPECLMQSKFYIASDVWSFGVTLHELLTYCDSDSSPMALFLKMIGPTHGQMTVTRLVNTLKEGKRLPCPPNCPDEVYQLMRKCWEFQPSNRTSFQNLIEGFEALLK
TYK2, sequence (P29597 whole entry, species assumed): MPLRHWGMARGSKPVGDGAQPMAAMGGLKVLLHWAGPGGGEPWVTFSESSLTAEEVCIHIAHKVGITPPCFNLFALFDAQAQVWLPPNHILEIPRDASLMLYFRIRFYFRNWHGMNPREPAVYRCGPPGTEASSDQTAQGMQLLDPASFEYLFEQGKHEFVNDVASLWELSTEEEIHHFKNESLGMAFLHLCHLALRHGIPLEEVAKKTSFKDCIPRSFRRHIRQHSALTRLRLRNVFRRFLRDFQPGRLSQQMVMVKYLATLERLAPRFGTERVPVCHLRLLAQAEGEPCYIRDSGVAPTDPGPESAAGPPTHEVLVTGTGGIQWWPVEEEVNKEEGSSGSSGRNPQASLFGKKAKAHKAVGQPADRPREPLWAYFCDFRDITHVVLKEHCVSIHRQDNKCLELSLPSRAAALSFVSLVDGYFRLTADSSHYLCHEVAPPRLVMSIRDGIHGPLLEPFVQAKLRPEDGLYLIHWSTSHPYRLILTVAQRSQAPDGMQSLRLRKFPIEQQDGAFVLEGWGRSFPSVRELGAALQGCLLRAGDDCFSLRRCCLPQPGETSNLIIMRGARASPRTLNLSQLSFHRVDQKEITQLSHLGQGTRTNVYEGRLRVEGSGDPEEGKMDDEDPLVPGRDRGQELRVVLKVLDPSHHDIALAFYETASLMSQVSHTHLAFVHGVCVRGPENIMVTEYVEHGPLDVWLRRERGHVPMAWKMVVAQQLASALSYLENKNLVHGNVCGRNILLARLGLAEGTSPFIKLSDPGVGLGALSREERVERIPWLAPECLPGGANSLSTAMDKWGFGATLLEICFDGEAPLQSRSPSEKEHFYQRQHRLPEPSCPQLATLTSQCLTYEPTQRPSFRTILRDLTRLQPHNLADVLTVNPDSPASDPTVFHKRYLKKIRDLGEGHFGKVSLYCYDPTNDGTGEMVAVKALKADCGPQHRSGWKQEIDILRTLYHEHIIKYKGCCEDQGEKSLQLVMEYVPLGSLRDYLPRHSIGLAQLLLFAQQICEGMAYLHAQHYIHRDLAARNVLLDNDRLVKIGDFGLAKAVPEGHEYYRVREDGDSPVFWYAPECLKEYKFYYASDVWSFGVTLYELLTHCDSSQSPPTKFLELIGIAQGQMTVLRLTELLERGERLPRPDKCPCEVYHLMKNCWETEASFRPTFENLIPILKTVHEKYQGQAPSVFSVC
JAK2, sequence (O60674 whole entry, species assumed): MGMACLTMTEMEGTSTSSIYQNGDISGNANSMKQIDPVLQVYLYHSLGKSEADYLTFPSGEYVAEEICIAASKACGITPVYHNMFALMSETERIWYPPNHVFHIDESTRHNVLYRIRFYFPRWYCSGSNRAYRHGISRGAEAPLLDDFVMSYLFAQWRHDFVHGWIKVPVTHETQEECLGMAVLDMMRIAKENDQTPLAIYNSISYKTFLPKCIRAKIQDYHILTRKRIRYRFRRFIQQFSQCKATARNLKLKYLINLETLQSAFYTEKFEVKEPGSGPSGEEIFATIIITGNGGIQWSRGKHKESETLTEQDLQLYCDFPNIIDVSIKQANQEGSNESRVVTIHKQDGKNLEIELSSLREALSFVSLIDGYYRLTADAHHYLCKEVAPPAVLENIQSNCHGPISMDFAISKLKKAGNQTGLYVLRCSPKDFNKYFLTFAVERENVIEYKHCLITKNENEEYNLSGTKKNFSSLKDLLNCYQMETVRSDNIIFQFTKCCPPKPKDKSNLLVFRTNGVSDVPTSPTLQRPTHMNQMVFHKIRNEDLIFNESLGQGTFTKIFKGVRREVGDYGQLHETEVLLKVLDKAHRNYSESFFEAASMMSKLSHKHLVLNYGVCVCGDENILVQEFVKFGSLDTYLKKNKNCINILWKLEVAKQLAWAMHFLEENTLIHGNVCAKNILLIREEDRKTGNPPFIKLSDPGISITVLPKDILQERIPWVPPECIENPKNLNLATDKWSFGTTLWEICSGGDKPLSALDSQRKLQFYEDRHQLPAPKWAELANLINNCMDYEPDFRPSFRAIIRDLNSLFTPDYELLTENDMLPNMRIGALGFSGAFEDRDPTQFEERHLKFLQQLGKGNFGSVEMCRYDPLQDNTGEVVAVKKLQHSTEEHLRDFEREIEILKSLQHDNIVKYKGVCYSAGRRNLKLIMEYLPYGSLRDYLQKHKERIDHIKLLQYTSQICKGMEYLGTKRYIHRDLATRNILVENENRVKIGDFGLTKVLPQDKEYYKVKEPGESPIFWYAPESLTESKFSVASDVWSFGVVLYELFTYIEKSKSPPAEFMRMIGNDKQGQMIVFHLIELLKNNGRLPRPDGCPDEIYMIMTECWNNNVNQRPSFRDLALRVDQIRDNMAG

NC(=O)c1cnc(Nc2ccc3c(c2)OC[C@H]2CN(S(=O)(=O)C4CC4)CCN32)nc1NC1CC1 [Compound (I), (R)-4-(cyclopropylamino)-2-((3-(cyclopropylsulfonyl)-1,2,3,4,4a,5-hexahydrobenzo[b]pyrazolo[1,2-d][1,4]oxazin-8-yl)amino)pyrimidine-5-arboxamide]
Genotoxicity [1]: no genotoxicity
pIC50 [2]: 8.41
pIC50 [3]: 7.70
pIC50 [4]: 9.09
pIC50 [5]: 8.84
pIC50 [6]: 8.14
